This passage reports Drug uptake, Activity and IC50 results from ChEMBL document CHEMBL5625272, “A PSMA-targeted doxorubicin small-molecule drug conjugate” (Bioorg Med Chem Lett, 2024).

Data set [1] in a line: Drug uptake in human PC-3 cells with PSMA knockout assessed as increase in fluorescence at 10 uM incubated for 10 mins by DAPI staining based confocal microscopy analysis. Type of data set: ADME, cell-based. The note with it: pc-3, 10 min.
The nature of data set [2]: Drug uptake in PSMA positive human LNCaP C4-2B cells assessed as increase in fluorescence at 10 uM incubated for 10 mins in presence of CTT1057 by DAPI staining based confocal microscopy analysis. The format is ADME, cell-based.
Data set [3] can be described thus: Drug uptake in PSMA positive human LNCaP C4-2B cells assessed as increase in fluorescence at 10 uM incubated for 10 mins by DAPI staining based confocal microscopy analysis. The format is ADME, cell-based.
The next data set relates to LNCaP C4-2B. The data set can be described thus: Anticancer activity against PMSA positive human LNCaP C4-2B cells assessed as reduction in cell viability measured after 72 hrs by celltiter-glo assay. The conditions noted are these: dose 0.313-20 µM. The format is functional, cell-based. In general terms: In ATP-based viability assays light output follows the ATP content of the culture.

In another data set the test system is PC-3. Nature of the data set: Anticancer activity against human PC-3 cells with PSMA knockout cells assessed as reduction in cell viability measured after 72 hrs by celltiter-glo assay. Type of data set: functional, cell-based. The note with it: dose 0.313-20 µM.
The target in data set [4] is Glutamate carboxypeptidase 2 (Homo sapiens, UniProt Q04609). The data set can be described thus: Irreversible inhibition of PSMA (unknown origin).

pIC50: −log10 of the molar value.

Glutamate carboxypeptidase 2, sequence (Q04609 whole entry): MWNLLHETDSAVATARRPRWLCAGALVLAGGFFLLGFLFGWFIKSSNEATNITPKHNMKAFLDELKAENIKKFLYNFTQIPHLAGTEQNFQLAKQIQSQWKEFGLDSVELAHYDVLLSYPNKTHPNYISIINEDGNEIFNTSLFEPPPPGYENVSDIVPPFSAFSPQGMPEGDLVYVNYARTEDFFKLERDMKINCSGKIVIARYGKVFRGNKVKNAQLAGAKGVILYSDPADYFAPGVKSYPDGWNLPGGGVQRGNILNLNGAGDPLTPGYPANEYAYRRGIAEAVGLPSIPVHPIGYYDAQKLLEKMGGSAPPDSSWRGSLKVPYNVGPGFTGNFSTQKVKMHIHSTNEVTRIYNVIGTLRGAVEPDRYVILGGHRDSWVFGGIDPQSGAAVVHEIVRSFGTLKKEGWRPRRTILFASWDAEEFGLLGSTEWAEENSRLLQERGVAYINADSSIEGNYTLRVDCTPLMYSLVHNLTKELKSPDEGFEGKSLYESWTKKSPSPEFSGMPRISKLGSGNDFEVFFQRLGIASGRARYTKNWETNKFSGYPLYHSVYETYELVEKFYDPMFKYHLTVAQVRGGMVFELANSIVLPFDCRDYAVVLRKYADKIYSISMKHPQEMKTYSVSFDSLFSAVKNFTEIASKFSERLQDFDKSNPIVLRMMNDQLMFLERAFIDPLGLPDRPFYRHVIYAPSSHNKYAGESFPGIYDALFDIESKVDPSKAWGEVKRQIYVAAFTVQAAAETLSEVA

Consider `COc1cccc2c1C(=O)c1c(O)c3c(c(O)c1C2=O)C[C@@](O)(C(=O)CO)C[C@@H]3O[C@H]1C[C@H](NC(=O)OCc2ccc(NC(=O)[C@H](CCCNC(N)=O)NC(=O)[C@@H](NC(=O)c3ccc(Cn4nnc5c4-c4ccccc4CN(C(=O)CCCCC(=O)NCCCCCC(=O)N[C@@H](CCC(=O)N[C@@H](CCCOP(=O)(O)N[C@@H](CCC(=O)O)C(=O)O)C(=O)O)C(=O)O)c4ccccc4-5)cc3)C(C)C)cc2)[C@H](O)[C@H](C)O1`, for which the Drug uptake result is recorded as “Not Active” in data set [1], “Not Active” in data set [2] and “Active” in data set [3]. The Activity result with LNCaP C4-2B and in the data set with PC-3 was “Dose-Dependent Effect” throughout.

Turning to `COc1cccc2c1C(=O)c1c(O)c3c(c(O)c1C2=O)C[C@@](O)(C(=O)CO)C[C@@H]3O[C@H]1C[C@H](N)[C@H](O)[C@H](C)O1` [DOXORUBICIN], in data set [4], the pIC50 is 5.00.

Broadly, the pIC50 is −log10 of the IC50, conventionally taken in molar units. High values mean a low IC50, low ones a high IC50.
